# Reference: paper PMC5654082 (Malaria Journal, 2017)
# Read-outs that look alike come from different tables or passages of the source. Marks after values point to notes of the source that are not given here.
# Assays:
# OCT2 [1] = test system: OCT2; design: method as in PMID 21599003; conditions: 20 µM; ASP as substrate; cited from earlier work
# [2] = Thai patients with falciparum malaria; cited from earlier work
# OCT1 [3] = test system: OCT1; design: method as in PMID 18788725; conditions: 100 µM; ASP as substrate; cited from earlier work
# [4] = adult patients with uncomplicated falciparum malaria; (geometric) mean or median; cited from earlier work
# [5] = Maximum plasma concentration from in vivo pharmacokinetic studies after therapeutic dosing; conditions: human, the literature Cmax (ng/mL) of Table 2 expressed in µM
# Source text: As Cmax the (geometric) mean or median maximum plasma concentrations obtained from previous in vivo pharmacokinetic studies after therapeutic dosing was used.
# OCT2 [6] = test system: OCT2; design: method as in PMID 16263091; conditions: stably transfected HEK293 cells; read-out: IC50 of [3H]MPP+ uptake, OCT2; cited from earlier work
# OCT1 [7] = test system: OCT1; design: method as in PMID 16263091; conditions: stably transfected HEK293 cells; read-out: IC50 of [3H]MPP+ uptake, OCT1; cited from earlier work
smiles,measurement,setting,value
"C=C[C@H]1C[N@@]2CC[C@H]1C[C@H]2[C@H](O)c1ccnc2ccc(OC)cc12 [Quinine, quinine]",Inhibition of OCT2,OCT2 [1],72%
same,Unbound fraction,[2],0.11^g [36]
same,Inhibition of OCT1,OCT1 [3],60%
same,Cmax,[4],11430^f [50] ng/mL
same,Cmax,[5],35 µM
same,IC50,OCT2 [6],23 µM
same,IC50,OCT1 [7],13 µM
